# Measurements published in patent publication US8507506B2, “Theophylline derivative inhibits osteoporosis” (Kaohsiung Medical University, priority 2011, dated 2013).
# Marks after values point to notes of the source that are not given here.
# Key:
# [1] = tested on: osteoclast-like cells, OCL; test: Intracellular calcium (fura-2/AM), RANKL-induced calcium influx; type: cell-based; conditions: 1 μM and 10 μM, FIGS. 14 and 15
# [2] = tested on: p38 phosphorylation in RAW264.7 cells; test: Western blot, phosphorylation of p38 induced by RANKL; type: cell-based; conditions: 7.5 μM and 10 μM, RANKL 15 minutes, FIG. 11
# Method: MAP kinases including ERK, JNK and p38 are stimulated by RANKL to be phosphorylized and further influence the down-stream key transcription factors which induce the differentiation of osteoclast-like cells such as c-Fos, NFATc1, etc. Before estimating the drug effect, 10 ng/ml RANKL are used to induce the phosphorylation of ERK, JNK and p38 at different time points. […] It is shown that KMUP-1 can reduce the activation of MAP kinases induced by RANKL. […] The proteins were collected by scraping and were centrifuged (13,000 rpm, 4° C., 30 minutes). The supernatant was stored in an eppendorf in −80° C. • c) Concentrations of the proteins were examined by Bio-Red DC Protein Assay. After knowing the concentrations, the proteins were diluted to specific concentrations by adding ddH2O. One forth volume of the diluted proteins of sample buffer was added into the diluted proteins and was put in boiled water for 5 min and then was chilled on ice for 5 minutes. After short time centrifugation, the diluted proteins could be injected into wells of a gel. The gel was run at 100 V for 10 minutes until the proteins were driven to the intersection between a loading gel and a running gel. Then, the voltage was swopped to 200 V for 40 minutes. • d) A PVDF membrane was immersed in Methanol for 2 minutes. After two washes in ddH2O, the membrane was immersed in transfer buffer for 15 minutes. […]
# [3] = tested on: osteoclast-like cells; test: Pit formation assay (dissolution of osteoclast-like cells); type: cell-based; conditions: calcium phosphate coated plates, 10 ng/ml RANKL for five days, different concentrations, FIG. 5
# Method: In order to confirm the influence of KMUP-1 to the bone dissolution of differentiated osteoclast-like cells, cells are cultured in the plates which are coated calcium phosphate of bone-like matrix in the bottom and are given 10 ng/ml RANKL for five days and different concentration of KMUP-1. According to the result, compared with the control group, in the group which is given 10 ng/ml RANKL alone for 5 days, the osteoclast-like cells have obviously dissolution activity, so the covers at the plate bottom present many holes. […] Subsequently, 100 μl medium with 1,000 cells were added into each well, and the total volume was 300 μl/well. The slides were incubated for 5 days, and the medium and the drugs were renewed every 2 days. After 5 days, the medium was removed, and the cells were washed by ddH2O 3 times. Subsequently, the cells were covered by Bleach solution for staining 5 minutes and then were washed by ddH2O for 5 times. After drying, the cells were took a photo by an optical microscopy (40× and 200×), and Autopano Pro V1.4.2, Kolor, Paris, was used to proceed the pictures taken in 40×.
# [4] = tested on: MIA-induced knee arthritis in Wistar male rats; test: Monosodium iodoacetate (MIA) induced knee arthritis rat model; type: in vivo
# [5] = tested on: IκBα in cytoplasm of RAW264.7 cells; test: Western blot, IκBα phosphorylation and hydrolysis induced by RANKL; type: cell-based; conditions: KMUP-1 in advance 24 hours, RANKL 30 minutes, FIG. 8(A)
# Method: IκBα which originally binds with NF-κB to inhibit its activity in cytoplasm is stimulated by RANKL to be phosphorylized and be hydrolyzed after separating from NF-κB. Then, the free NF-κB transfers into a cell nucleus to play a role as a transcription factor. According to the experimental result, compared with the control group, in the group induced by RANKL for 30 minutes, the IκBα in the cytoplasm is obviously phosphorylized and hydrolyzed. […] According to the result, KMUP-1 can inhibit NF-κB activation induced by RANKL. Nuclear proteins were extracted according to the instructions of NE-PER kit. 2.5×10^6 cells were plated per well in 24-well plates. […] Subsequently, the cells were added by 5.5 μ[…] and shaken for 5 seconds and then put on ice for 1 minute. After that, the cells were shaken again for 5 seconds and centrifuged (10,000 rpm, 4° C., 5 minutes). Cytoplasm and Nuclei could be separated by this process, and the supernatant was cytoplasmic proteins, and the pallet was nuclei. The supernatant was stored in an eppendorf in -80° C. b) Extraction of Nuclear Proteins The nuclear pallet was added by 500 μl PBS and centrifuged (10,000 rpm, 4° C., 5 minutes), and the supernatant was discarded. The pallet could be washed by this process and prevented contamination. […]
# [6] = tested on: Cathepsin K mRNA in RAW264.7 cells; test: RT-PCR, RANKL-induced mRNA expression of Cathepsin K; type: cell-based; conditions: for RANKL-induced mRNA expression level of Cathepsin K: RAW264.7 cells, 24 hours, CTL 100%, mean ± SEM
# Source text: The culture medium was discarded. […] [table] f) Running • A.
smiles,measurement,setting,value
"Cn1c(=O)c2c(ncn2CCN2CCN(c3ccccc3Cl)CC2)n(C)c1=O [KMUP-1, 7-[2-[4-(2-Chlorophenyl)piperazin-1-yl]ethyl] theophylline]",RANKL-induced extracellular calcium influx,[1],can inhibit it
same,phosphorylation of p38 induced by RANKL,[2],"can efficiently inhibit the phosphorylation of ERK, JNK and p38 induced by RANKL"
same,dissolution of osteoclast-like cells (dissolution area),[3],can inhibit the dissolution of osetocalst-like cells
same,holes and defects of cartilage tissues (H&E slices),[4]; oral 1 mg/kg,the holes and defects from the damages of the MIA still exist
same,inflammatory cell infiltrations (H&E slices),[4]; oral 1 mg/kg,there are still many inflammatory cell infiltrations
same,holes and defects of cartilage tissues (H&E slices),[4]; oral 2.5 mg/kg,become much better
same,inflammatory cell infiltrations (H&E slices),[4]; oral 2.5 mg/kg,the inflammatory cell infiltrations become less
same,damages of articular cartilage caused by MIA (gross appearance),"[4]; oral 2.5 mg/kg and 5 mg/kg, one week before and one week after MIA",can reduce the damages caused by the MIA
same,holes and defects of cartilage tissues (H&E slices),[4]; oral 5 mg/kg,close to the recovery condition of the sham group
same,inflammatory cell infiltrations (H&E slices),[4]; oral 5 mg/kg,there are still some inflammatory cell infiltrations
same,mast cell infiltrations (toluidine blue slices),"[4]; oral 1, 2.5, 5 mg/kg",the mast cell infiltrations present a trend of reducing according to the higher dose
same,phosphorylation and hydrolysis of IκBα in cytoplasm induced by RANKL,[5],can inhibit the effect of RANKL
same,effect on mRNA expression of Cathepsin K induced by RANKL (in words),"[6]; 10 ng/ml RANKL, summary of Table 1",not obviously inhibits
same,RANKL-induced mRNA expression level of Cathepsin K,[6]; RANKL 10 ng/ml + KMUP-1 1 μM,304 ± 7.8%
same,RANKL-induced mRNA expression level of Cathepsin K,[6]; RANKL 10 ng/ml + KMUP-1 2.5 μM,305 ± 5.9%
same,RANKL-induced mRNA expression level of Cathepsin K,[6]; RANKL 10 ng/ml + KMUP-1 5 μM,312 ± 6.2%^
same,RANKL-induced mRNA expression level of Cathepsin K,[6]; RANKL 10 ng/ml + KMUP-1 7.5 μM,321.5 ± 10.2% ^
same,RANKL-induced mRNA expression level of Cathepsin K,[6]; RANKL 10 ng/ml + KMUP-1 10 μM,245 ± 8.5% ^b
